Patent US10639372B2, “Nucleic acid, medical nanoparticle, and pharmaceutical composition thereof” (Chung Yuan Christian University, priority 2016, dated 2020)

What was measured:
SAS cells = assay: Cytotoxicity test (MTT test) on SAS cells; format: cell-based, human; settings: SAS cells treated 48 hours, MTT survival rate
Description: (§1) The human oral cancer cells used in the Examples SCC4 and SAS are cultivated in a Dulbecco's Modified Eagle's medium (DMEM) cell culture having 10% fetal bovine serum (FBS). The cells are cultivated in an environment having 5% carbon dioxide in 37 degree Celsius. When enough cells are cultivated, the subsequent analysis and tests are performed.
(§2) The MTT reagent (namely, 3-(4,5-dimethylthiazol)-2,5-diphenyltetrazoliumbromide) is a yellow dye. After the MTT reagents are reacted with succinatedehydrogenase-ubiquinone (SDH) in the mitochondrion and cytochrome C, water insoluble blue-purple crystals are formed. After the crystals are dissolved in DMSO solution, the cell survival condition may be determined by the absorbance of the solution at 570 nm, so that the survival ratio of the cells can be calculated.
(§3) DMEM cell culture without serum are provided for preparing MTT solution having a concentration of 5 milligrams per milliliter. […]
(§4) The SCC4 or SAS cells are planted in a 48-well plate (each having 1×10^4 cells). […] And then, the absorbance of the supernatant at 570 nm can be obtained by an enzyme-linked immunosorbent assay (ELISA) reader (model: VersaMax™ Microplate Reader, Molecular devices, Sunnyvale, USA).

SCC4 cells = assay: Cytotoxicity test (MTT test) on SCC4 cells; format: cell-based, human; settings: SCC4 cells treated 48 hours, MTT survival rate
Description: as §1, §2, §3, §4

Row | Substance | IC50 for SAS cells (SAS cells) [microgram per milliliter] | IC50 for SCC4 cells (SCC4 cells) [microgram per milliliter]
1 | photosan | 1.75 | 2.4
2 | pyropheophorbide-phosphatidic acid [pyro-PA] | 0.1 | 0.8
